Measured values from US20240294478A1, “ANTI-CANCER COMPOUNDS AND METHODS OF USE” (YALE UNIVERSITY, priority 2021, published 2024).

Legend:
[1] = Maximum tolerated dose study in healthy mice; type: in vivo
Source text: FIGS. 10A-10G. KL-50 is efficacious in an LN229 MGMT−/MMR− intracranial model and is well tolerated with limited myelosuppression at supratherapeutic doses. […] (FIG. 10B) Mean body change with SEM of mice during maximum tolerated dose experiment in non-tumor bearing mice. (FIGS. 10C-10G) Complete blood counts for mice pre-treatment and 7 days post-treatment with escalations of single dose KL-50 delivered PO. WBC lower limit of normal (LLN): 2.2 K/L; Neutrophils LLN: 0.42 K/L; Lymphocyte LLN: 1.7 K/L; RBC LLN: 3.47 M/L; Platelet LLN: 155 K/L. *, P<0.05; ****, P<0.0001.
Healthy mice were treated with escalating doses of KL-50 (0, 25, 50, 100, and 200 mg/kg x 1 dose), and monitored over time for changes in both weights and hematologic profiles. […]. […]

[2] = test system: isogenic mouse embryonic fibroblasts (MEFs) proficient or deficient in XPA; assay: Short-term cell viability, XPA proficient or deficient MEFs; type: cell-based; details: with or without O6BG-induced MGMT depletion
Description: (§1) Columns, mean; error bars, SD; n=2 independent analyses. For (A) and (C), points, mean; error bars, SD; n=3 technical replicates.
The potential for alternative mechanisms of action for KL-50 were probed implicating nucleotide excision repair (NER), base excision repair (BER), reactive oxygen species (ROS), and DNA duplex destabilization.
(§2) Short-term Cell Viability Assay. Cells were seeded in 96-well plates at 1000 or 2000 cells/well and allowed to adhere at 23° C. for 60 min and then incubated overnight at 37° C. Cells were treated with indicated concentrations of compounds in triplicate for 4-6 days prior to fixation with 3.7% paraformaldehyde and nuclear staining with 1 μg/mL Hoechst 33342 dye. Cells were imaged on a Cytation 3 imaging reader (BioTek) and quantified using CellProfiler software. For in vitro short-term growth delay experiments, IC50 values were determined from the nonlinear regression equation, [inhibitor] vs normalized response with variable slope.

[3] = test system: LN229 MGMT+/−, MMR+/− isogenic lines; assay: Short-term cell viability with ROS scavenger NAC; type: cell-based, human; details: increasing concentrations of NAC
Description: as §1, §2

[4] = test system: LN229 MGMT−/MMR+ and MGMT−/MMR− flank tumors; assay: Flank tumor second study: regimens, schedules, routes; type: in vivo, mouse; details: 5, 15, 25 mg/kg; MWF x 3 weeks or M-F x 1 week; PO or IP
Source text: FIGS. 9A-91: KL-50 is safe and efficacious on both MGMT−/MMR+ and MGMT−/MMR-flank tumors over a wide range of treatment regimens and conditions. […] (FIG. 9C) Mean body weight of mice during LN229 flank tumor experiments. (FIG. 9D) Kaplan-Meier analysis of LN229 MGMT−/MMR− xenograft flank tumor-bearing mice to determine survival rate based on death, removal from study if mouse body weight loss exceeded 20% of initial body weight, or if tumor volume exceeded 2000 mm^3. […] (FIGS. 9H-91) Xenograft LN229 MGMT−/MMR+ and LN229 MGMT−/MSH6—flank tumors with a larger average starting tumor size of −400 mm^3 and −350 mm^3 respectively, treated with 3 weekly cycles of P.O administration of 10% cyclodextrin (n=4) or KL-50 (n=4, 3 cycles of 25 mg/kg on Monday, Wednesday, and Friday). The study period was limited by control groups which had to be euthanized for exceeding the ethical maximum allowed tumor size, thus ending the study. In all panels, points, mean; error bars, SEM; *, P<0.05; **, P<0.01; ***, P<0.001; ****, P<0.0001; ns, not significant.
In a second study, mice were randomized and administered either KL-50 or vehicle (10% cyclodextrin) by oral gavage or intraperitoneal injection on either M-F x 1 or MWF×3 cycles at 5, 15, or 25 mgs/kg. Caliper measurements were obtained during the dosing period and at least two weeks following treatment. […]

[5] = test system: PD20 cells, deficient in FANCD2 (FANCD2−/−) or complemented with FANCD2; assay: Short-term viability assay, PD20 cells; type: cell-based, human; details: PD20 FANCD2−/− vs +FANCD2
Description: FIGS. 8A-8K. (FIG. 8A) Change in percent cells with 1 micronuclei from baseline (DMSO control) after treatment as in FIGS. 5A and 5C. […] (FIG. 8B) Short-term viability assay curves for KL-50 in PD20 cells, deficient in FANCD2 (FANCD2−/−) or complemented with FANCD2 (+FANCD2). (FIG. 8C) Short-term viability assay curves for KL-50 in PEO4 (BRCA2+) and PEO1 (BRCA2−/−) cells pre-treated with 0.01% DMSO control or 10 μM O^6BG (+O^6BG) for 1 h prior to KL-50 addition. (FIG. 8D) Short-term viability assay curves for KL-50 in DLD1 BRCA2+/− and BRCA2−/−cells pre-treated with 0.01% DMSO control or 10 μM O^6BG (+O^6BG) for 1 h prior to KL-50 addition. For FIGS. 8B-8D, points, mean; error bars, SD; n=3 technical replicates. […] Change in percent cells with 1 micronuclei from baseline (DMSO control) after treatment with olaparib (10 μM) for 48 h in LN229 MGMT+/−, MMR+/−cells. […] Western blot analysis of FANCD2 ubiquitination in LN229 MGMT+/−, MMR+/−cells and PD20 FANCD2-deficient cells, complemented with empty vector (FANCD2+EV), wildtype FANCD2 (PD20+FD2) or ubiquitination-mutant FANCD2 (PD20+KR). The % FANCD2 ubiquitination (% FANCD2 Ub) is quantified as the background-corrected integrated band intensity of the upper band divided by the sum of the background-corrected integrated band intensities of the upper and lower bands. The fold change in % FANCD2 ubiquitination is presented for each cell line relative to DMSO-treated cells. Vinculin serves as loading control. For 8J-8K, points, mean; error bars, SD; n=3 technical replicates.
as §2, with “Cells were treated with indicated concentrations of compounds in triplicate for 4-6 days prior to fixation with 3.7% paraformaldehyde and nuclear staining with 1 μg/mL Hoechst 33342 dye.” left out

NC(=O)c1ncn2c(=O)n(CCF)nnc12 [KL-50]
mice observably ill warranting euthanasia ([1]; 200 mg/kg x 1 dose): Two of three mice | toxicity in remaining cohorts ([1]; 25, 50, 100 mg/kg x 1 dose): no evidence of toxicity | complete blood counts day 7 ([1]; all cohorts, 0-200 mg/kg single dose PO): within normal physiological ranges | tolerability, overall ([1]; escalating single doses): well-tolerated | weight loss after treatment administration ([1]; single dose 100 or 200 mg/kg, regressed to baseline at the end of one week): greater than 10% | sensitivity of XPA-deficient vs proficient MEFs [2]: no differential sensitivity | rescue of toxicity by ROS scavenger NAC [3]: did not result in rescue of KL-50 toxicity | efficacy and toxicity across regimens [4]: effective and non-toxic | sensitivity of FANCD2-deficient cells [5]: hypersensitive
